Assay results reported in PMC8232621, “Antimicrobial Activity of a Library of Thioxanthones and Their Potential as Efflux Pump Inhibitors” (Pharmaceuticals, 2021).
Where two headings read alike, the source gives them in different places.

What was measured:
SE03 = test: Antibacterial activity, broth microdilution MIC; assay type: cell-based, Salmonella enterica serovar Typhimurium SL1344; conditions: Salmonella enterica, read-out: Minimum Inhibitory Concentration (MIC)
From the text: (§1) The referred library of thioxanthones was initially tested for their antimicrobial activity against six bacterial strains: the Gram-negative Escherichia coli ATCC 25922, Pseudomonas aeruginosa ATCC 27853 and Salmonella enterica serovar Typhimurium SL1344 (SE03), with the acrA gene deleted, and the Gram-positive Staphylococcus aureus ATCC 29213, Enterococcus faecalis ATCC 29212 and the methicillin and ofloxacin-resistant clinical isolate S. aureus 272123. For the synergy assay, two clinically relevant isolates were used: the extended-spectrum β-lactamase (ESBL)-producing E. coli SA/2 [23] and the vancomycin-resistant E. faecalis (VRE) B3/101 [23]. The antibiotics used were cefotaxime (CTX) and vancomycin (VAN), respectively.
(§2) The minimum inhibitory concentration (MIC) for each compound was determined by broth microdilution method in a 96-well plate according to the Clinical and Laboratory Standard Institute (CLSI) guidelines. The medium used was MHB II. The concentrations tested ranged from 100 µM to 0.195 µM and were prepared from a stock solution of 10 mM in DMSO, for S. aureus 272123 and SE03; for the other strains, the concentrations tested ranged from 64 µg/mL to 4 µg/mL and were prepared from a stock solution of 10 mg/mL in DMSO. DMSO was used in subinhibitory concentrations (1% v/v). The MIC was determined by visual inspection.

wt85 = test: Quorum sensing inhibition assay (pigment production); assay type: cell-based, Chromobacterium violaceum wild-type 85; conditions: Chromobacterium violaceum, read-out: Quorum Sensing Inhibition (mm) ± SD
Protocol: (§3) Concerning the QS inhibition assay, the sensor strain Chromobacterium violaceum CV026 and the AHL producer strain Sphingomonas paucimobilis Ezf 10-17 (EZF) were inoculated as parallel lines, and the AHL producers Chromobacterium violaceum wild-type 85 (wt85) and Serratia marcescens AS-1 were inoculated as a single line. The interaction between the strains and compounds 2–18 was evaluated as the reduction of pigment production, in millimeters (mm) (Table 5) with promethazine (PMZ) as a positive control.
(§4) The QS inhibitory effect of the compounds was examined on the EZF and the sensor CV026 strains, on the wt85 strain, and on S. marcescens. The method used was the parallel inoculation method, where pair combinations of the used sensor strain CV026 and the N-acyl-homoserine lactone (AHL) producing strain EZF were inoculated directly onto the LB*-A agar surface in parallel, at an approximate distance of 5 mm from each other. S. marcescens AS-1 and wt85 were inoculated as a single line. Filter paper disks (7 mm in diameter) were placed on the center of the inoculated line(s) and impregnated with 8 µL of a solution of 10 mM of the compounds. […] The agar plates were incubated at room temperature (20 °C) for 24−48 h. The QS inhibition was accessed visually, through the inhibition of pigment production. The discolored, but intact, bacterial colonies were measured with a ruler.

S. aureus 272123 [1] = test: Antibacterial activity, broth microdilution MIC; assay type: cell-based; conditions: Staphylococcus aureus, 272123, read-out: Minimum Inhibitory Concentration (MIC)
From the text: as §1, §2

E. faecalis ATCC 29212 = test: Antibacterial activity, broth microdilution MIC; assay type: cell-based; conditions: Enterococcus faecalis
From the text: as §1, §2

S. aureus ATCC 29213 = test: Antibacterial activity, broth microdilution MIC; assay type: cell-based; conditions: Staphylococcus aureus
From the text: as §1, §2

S. marcescens = test: Quorum sensing inhibition assay (pigment production); assay type: cell-based, Serratia marcescens AS-1; conditions: Serratia marcescens, read-out: Quorum Sensing Inhibition (mm) ± SD
Protocol: as §3, §4

S. aureus 272123 [2] = test: Inhibition of biofilm formation (crystal violet); assay type: cell-based, Staphylococcus aureus; conditions: read-out: Biofilm Inhibition (%) ± SD
Protocol: Efflux mechanisms are one of the factors that can lead to biofilm-mediated resistance, along with slow growth and reduced penetration due to production of extracellular polysaccharides. […] Additionally, they can also modulate QS, through an influence in the transport of QS signal molecules. Thioxanthones 2–18 were tested for their potential for inhibiting biofilm formation by S. aureus ATCC 29213 and the multi-resistant S. aureus 272123. The biofilm inhibition, presented in percentage (%), was calculated based on the mean of absorbance units. Reserpine, which has previously been described as both an efflux pump inhibitor and an inhibitor of biofilm formation in Gram-positive bacteria was used as control in both strains.
The thioxanthone derivatives were tested for their ability to decrease the formation of biofilm. The bacterial strains used were the Gram-positive S. aureus […] and S. aureus 272123. The detection of the biofilm formation was carried out using the dye crystal violet (CV; 0.1% v/v). The initial inoculum was incubated in TSB overnight, and then diluted to an OD600 of 0.1. […] This meant that compound 12 was added at 50 µM, while the rest of the compounds were added at the concentration of 100 µM. The final volume in each well was 200 µL. Reserpine was used as a positive control, as it was the same compound used in the efflux pump inhibition assay and it has shown activity in the inhibition of biofilm formation in S. aureus strains. The plates were incubated at 30 °C for 48 h, with gentle stirring (100 rpm). After this incubation period, the TSB medium was discarded, and the plates were washed with tap water to remove unattached cells. Afterwards, 200 µL of a 0.1% v/v CV solution were added to the wells and incubated for 15 min at room temperature. Then, the CV solution was removed from the wells, and the plates were washed again with tap water, and 200 µL of a 70% ethanol solution was added to the wells. The biofilm formation was determined by measuring the OD600 using a Multiscan EX ELISA plate reader (Thermo Labsystems, Cheshire, WA, USA). The anti-biofilm effect of the compounds was expressed in the percentage (%) of decrease of biofilm formation.

[3] = ATCC29212, E. faecalis ATCC 29212, read-out: Minimum Inhibitory Concentration (MIC)
[4] = ATCC29213, S. aureus ATCC 29213, read-out: Minimum Inhibitory Concentration (MIC)
[5] = Staphylococcus aureus, S. aureus 272123, compounds 100 µM (compound 12 at 50 µM), 48 h
[6] = ATCC29212, read-out: Minimum Inhibitory Concentration (MIC)
[7] = ATCC29213, read-out: Minimum Inhibitory Concentration (MIC)

Row | Structure (SMILES) | MIC (SE03) | zone of inhibition at 10000 µM (wt85) | MIC (S. aureus 272123 [1]) | MIC (E. faecalis ATCC 29212; [3]) | MIC (S. aureus ATCC 29213; [4]) | zone of inhibition at 10000 µM (S. marcescens) | inhibition at 100 µM (S. aureus 272123 [2]; [5]) | MIC (E. faecalis ATCC 29212; [6]) | MIC (S. aureus ATCC 29213; [7]) | inhibition at 100 µM (S. aureus 272123 [2]; Staphylococcus aureus, 272123, 48 h)
1 | CCCOc1ccc(Br)c2c(=O)c3ccccc3sc12 [Compound 14, 1-Bromo-4-propoxy-9H-thioxanthen-9-one] | > 100 µM | 0 mm | > 100 µM | > 100 µM | > 100 µM | 0 mm | 2.46 ± 0.72% |  |  | 
2 | CCCOc1ccc2c3c(n/c(=N\c4ccccc4C)n2-c2ccccc2C)-c2ccccc2Sc13 [Compound 18] | > 100 µM | 0 mm | > 100 µM | > 100 µM | > 100 µM | 0 mm | 1.62 ± 2.43% |  |  | 
3 | CCCOc1ccc(NS(=O)(=O)c2ccc(C(=O)O)cc2)c2c(=O)c3ccccc3sc12 [Compound 12, 4-[N-(9-Oxo-4-propoxy-9H-thioxanthen-1-yl)sulfamoyl]benzoic acid] | 50 µM | 0 mm | > 100 µM | 16 µg/mL | 16 µg/mL | 0 mm |  | 34 µM | 34 µM | 
4 | CCCOc1ccc2nc(NCc3ccccc3Cl)nc3c2c1Sc1ccccc1-3 [Compound 17] | > 100 µM | 0 mm | > 100 µM | > 100 µM | > 100 µM | 0 mm | 6.32 ± 4.32% |  |  | 
5 | CCCOc1ccc(NCCO)c2c(=O)c3ccccc3sc12 [Compound 10, 1-[(2-Hydroxyethyl)amino]-4-propoxy-9H-thioxanthen-9-one] | > 100 µM | 0 mm | > 100 µM | > 100 µM | > 100 µM | 0 mm | 55.2 ± 4.2% |  |  | 
6 | CCCOc1ccc(N2CCCCC2)c2c(=O)c3ccccc3sc12 [Compound 3] | > 100 µM | 0 mm | > 100 µM | > 100 µM | > 100 µM | 0 mm |  |  |  | 93.49 ± 0.33%
7 | CCCOc1ccc(NS(=O)(=O)c2ccc(N)cc2)c2c(=O)c3ccccc3sc12 [Compound 13, 4-Amino-N-(9-oxo-4-propoxy-9H-thioxanthen-1-yl)benzenesulfonamide] | > 100 µM | 0 mm | > 100 µM | > 100 µM | > 100 µM | 0 mm | 72 ± 6.66% |  |  | 
8 | CCCOc1ccc(N2CCNC(=O)C2)c2c(=O)c3ccccc3sc12 [Compound 9, 4-(9-Oxo-4-propoxy-9H-thioxanthen-1-yl)piperazin-2-one] | > 100 µM | 0 mm | > 100 µM | > 100 µM | > 100 µM | 0 mm | 31.5 ± 8.99% |  |  | 
9 | CCCOc1ccc(Nc2nc(C)cc(C)n2)c2c(=O)c3ccccc3sc12 [Compound 8, 1-[(4,6-Dimethylpyrimidin-2-yl)amino]-4-propoxy-9H-thioxanthen-9-one] | > 100 µM | 0 mm | > 100 µM | > 100 µM | > 100 µM | 0 mm | 0% |  |  | 
10 | CCCOc1ccc2ncnc3c2c1Sc1ccccc1-3 [Compound 15] | > 100 µM | 0 mm | > 100 µM | > 100 µM | > 100 µM | 32 ± 0.5 mm | 76 ± 2.06% |  |  | 
11 | CCCOc1ccc(NCCN2CCOCC2)c2c(=O)c3ccccc3sc12 [Compound 11, 1-[(2-Morpholinoethyl)amino]-4-propoxy-9H-thioxanthen-9-one] | > 100 µM | 0 mm | > 100 µM | > 100 µM | > 100 µM | 31 ± 0.8 mm | 20.2 ± 4% |  |  | 
12 | CCCOc1ccc(NCCN(CC)CC)c2c(=O)c3ccccc3sc12 [Compound 2] | > 100 µM | 0 mm | > 100 µM | 32 µg/mL | 32 µg/mL | 0 mm | 81.1 ± 1.18% | 83 µM | 83 µM | 
13 | CCCOc1ccc2nc(N)nc3c2c1Sc1ccccc1-3 [Compound 16] | > 100 µM | 0 mm | > 100 µM | > 100 µM | > 100 µM | 0 mm | 73.6 ± 1.8% |  |  | 
